Experimental data taken from ChEMBL document CHEMBL5260795, “Antifungal potential of marine natural products” (Eur J Med Chem, 2017).
Values after ≈ are worked out from the molar mass of the structure shown.

What was measured:
[1] = tested on: Candida albicans; assay: Antifungal activity against wild type Candida albicans; format: functional, organism-based
[2] = tested on: Candida albicans; assay: Antifungal activity against amphotericin-B-resistant Candida albicans; format: functional, organism-based
[3] = tested on: Lindra thalassiae; assay: Antifungal activity against Lindra thalassiae; format: functional, organism-based; details: Lindriella thalassiae
[4] = tested on: Paradendryphiella salina; assay: Antifungal activity against Dendry-phiella salina; format: functional, organism-based
[5] = tested on: Cladosporium cucumerinum; assay: Antifungal activity against Cladosporium cucumerinum assessed as zone of inhibition; format: functional
[6] = tested on: Candida parapsilosis; assay: Antifungal activity against clinical strain Candida parapsilosis by atomatic microplate reader analysis; format: functional; details: Lodderomyces parapsilosis
[7] = tested on: Nannizzia gypsea; assay: Antifungal activity against Microsporum gypseum ATCC31388 by atomatic microplate reader analysis; format: functional
[8] = tested on: Kluyveromyces marxianus; assay: Antifungal activity against clinical strain Candida pseudotropicalis by atomatic microplate reader analysis; format: functional
[9] = tested on: Candida albicans; assay: Antifungal activity against Candida albicans ATCC76615 by atomatic microplate reader analysis; format: functional
[10] = tested on: Kluyveromyces marxianus; assay: Antifungal activity against Candida pseudotropicalis; format: functional
[11] = tested on: Candida albicans; assay: Antimicrobial activity against Candida albicans assessed as inhibition of fungal growth; format: functional
[12] = tested on: Nannizzia gypsea; assay: Antifungal activity against Microsporum gypseum; format: functional
[13] = tested on: Trichophyton rubrum; assay: Antifungal activity against Trichophyton rubrum; format: functional

CO[C@H]1C[C@H](CC[C@H](C)[C@H](O)[C@H](C)[C@H]2OC(=O)/C=C/C(C)=C/[C@@H](O)[C@H](OC)C[C@@H]3C=CC[C@@H](C[C@@H](OC)[C@@]4(CO4)[C@@H](OC)C[C@@H](OC)[C@@H]2C)O3)O[C@@H](C)C1
IC50 [1]: 1.3 µg/mL (≈ 1.69 µM)
IC50 [2]: 0.5 µg/mL (≈ 0.652 µM)
IC50 [3]: 0.135 µg/mL (≈ 0.176 µM)
IC50 [4]: 0.034 µg/mL (≈ 0.0443 µM)

CO[C@@H]1[C@@H](O)[C@H](O[C@@H]2[C@@H](O)[C@H](O[C@H]3[C@H](O)[C@@H](O)[C@H](O[C@H]4[C@H](O[C@H]5CC[C@]6(C)C7C[C@H](O)[C@]89C(=O)O[C@@](C)(CCCC(C)C)[C@@]8(O)CC[C@@]9(C)C7=CC[C@H]6C5(C)C)OC[C@@H](OS(=O)(=O)[O-])[C@@H]4O)O[C@@H]3C)O[C@H](COS(=O)(=O)[O-])[C@H]2O)O[C@H](CO)[C@H]1O.[Na+].[Na+] (stereo partly drawn)
inhibition zone (IZ) [5]: 8 mm

CO[C@@H]1[C@@H](O)[C@H](O[C@@H]2[C@H](O)[C@H](O[C@H]3[C@H](O)[C@@H](O)[C@H](O[C@H]4[C@H](OC5CC[C@]6(C)C7=C(CC[C@H]6C5(C)C)[C@]5(C)CC[C@H]6[C@]5(CC7)C(=O)O[C@@]6(C)C[C@H](O)CC(C)C)OC[C@@H](O[C@@H]5O[C@H](CO)[C@@H](O)[C@H](O)[C@H]5O)[C@@H]4O)O[C@@H]3CO)OC[C@H]2O)O[C@H](CO)[C@H]1O (stereo partly drawn)
MIC [6]: 3.4 µg/mL (≈ 2.75 µM)
MIC [7]: 3.4 µg/mL (≈ 2.75 µM)
MIC [8]: 3.4 µg/mL (≈ 2.75 µM)
MIC [9]: 3.4 µg/mL (≈ 2.75 µM)

C=C(C)CCC[C@]1(C)OC(=O)[C@]23[C@@H](O)C=C4[C@@H](CC[C@H]5C(C)(C)[C@@H](O[C@@H]6OC[C@@H](OS(=O)(=O)[O-])[C@H](O)[C@H]6O[C@@H]6O[C@H](C)[C@@H](O[C@@H]7O[C@H](CO)[C@@H](O)[C@H](O[C@@H]8O[C@H](CO)[C@@H](O)[C@H](OC)[C@H]8O)[C@H]7O)[C@H](O)[C@H]6O)CC[C@]45C)[C@]2(C)CC[C@@]31O.[Na+]
MIC [10]: 1 µg/mL
MIC [11]: 1 µg/mL
MIC [12]: 1 µg/mL
MIC [13]: 1 µg/mL
